18 compounds from patent publication EP4685143A1 (Vivozon,Inc., priority 2023, dated 2024) can be followed below.

The structures appear in SMILES notation.

One test concerns the target T1, Human mGluR5 (Homo sapiens, UniProt P41594).
T1 construct: expressed in transfected cells; host or cells: HEK293
In words: Fluorescence-based Ca2+ mobilization assay. To be noted: HEK293 cell line permanently overexpressing mGluR5, Ca2+ level change induced by L-glutamate at EC80 concentration, FLIPR Tetra. Here is the method: Experimental Example 2: Fluorescence-based Ca^2+ mobilization assay
In order to measure the activity of the antagonist on the mGluR5, an experiment was carried out to check the change in the intracellular Ca^2+ level using the HEK293 cell line permanently overexpressing the mGluR5. The cells in the cell culture medium were aliquoted into a 384-well plate coated with poly-D-lysine and cultured in a 37°C incubator supplied with 5% CO2. The next day, the medium was removed and a dye loading buffer-in which a reagent capable of measuring Ca^2+ was dissolved-was added, and then incubated at 37°C for 60 minutes. The test compounds were dissolved in 100% DMSO at a final concentration of 10 mM to make a stock solution. The starting concentration of 10 µM was prepared from the stock solution, followed by serial dilutions to prepare working solutions (test compound working solutions). The test compound working solutions were added to the cells that were incubated in the dye loading buffer, which were maintained for 30 minutes at room temperature in a light-shielding state before measurement. The Ca^2+ level change induced by L-glutamate at EC80 concentration was measured for 2 minutes using FLIPR Tetra (MDS Analytical Technologies). The fluorescent Ca^2+ signal values in the presence of the test compounds were normalized to the fluorescent signal elicited by EC80 concentration of L-glutamate as 100% and that elicited by vehicle as 0% to estimate % inhibition of the test compounds. […]

The next test addresses T2, human HDAC6 enzyme (Homo sapiens, UniProt Q9UBN7).
T2 sequence (Q9UBN7 1-1215): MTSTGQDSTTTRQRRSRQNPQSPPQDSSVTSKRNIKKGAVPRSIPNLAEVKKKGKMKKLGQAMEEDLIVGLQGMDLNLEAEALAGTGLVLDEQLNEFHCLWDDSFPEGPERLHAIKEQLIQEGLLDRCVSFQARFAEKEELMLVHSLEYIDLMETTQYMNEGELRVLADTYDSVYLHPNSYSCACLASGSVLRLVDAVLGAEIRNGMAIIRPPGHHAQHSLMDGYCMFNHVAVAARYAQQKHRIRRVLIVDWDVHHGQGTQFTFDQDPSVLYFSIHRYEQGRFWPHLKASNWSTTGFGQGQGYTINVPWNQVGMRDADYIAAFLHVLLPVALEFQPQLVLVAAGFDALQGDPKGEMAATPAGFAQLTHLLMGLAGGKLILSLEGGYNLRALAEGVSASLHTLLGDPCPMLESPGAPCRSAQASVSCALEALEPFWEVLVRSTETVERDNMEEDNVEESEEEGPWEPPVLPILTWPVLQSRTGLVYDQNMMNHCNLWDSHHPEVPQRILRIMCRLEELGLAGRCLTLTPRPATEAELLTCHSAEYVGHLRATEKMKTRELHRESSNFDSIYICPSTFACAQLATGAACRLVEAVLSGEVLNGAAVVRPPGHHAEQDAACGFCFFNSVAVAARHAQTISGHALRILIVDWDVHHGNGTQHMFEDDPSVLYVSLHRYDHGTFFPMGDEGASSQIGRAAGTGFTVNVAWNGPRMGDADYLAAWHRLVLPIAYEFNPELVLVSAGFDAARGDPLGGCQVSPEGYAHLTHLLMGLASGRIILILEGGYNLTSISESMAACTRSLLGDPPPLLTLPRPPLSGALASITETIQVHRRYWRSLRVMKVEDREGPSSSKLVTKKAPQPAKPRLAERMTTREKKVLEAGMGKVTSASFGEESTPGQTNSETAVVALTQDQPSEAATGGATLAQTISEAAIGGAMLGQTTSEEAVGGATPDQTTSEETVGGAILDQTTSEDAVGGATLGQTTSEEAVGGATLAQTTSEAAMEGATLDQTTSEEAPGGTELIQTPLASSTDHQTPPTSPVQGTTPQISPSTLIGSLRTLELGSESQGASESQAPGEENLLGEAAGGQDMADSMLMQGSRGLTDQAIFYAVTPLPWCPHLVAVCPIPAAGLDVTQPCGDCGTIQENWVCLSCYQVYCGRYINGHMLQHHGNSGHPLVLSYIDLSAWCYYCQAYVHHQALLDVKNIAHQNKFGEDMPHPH
In words: Fluorescence-based enzyme activity assay. Format: biochemical. To be noted: substrate with fluorescent peptide of p53 residues 379-382, 30°C for 1 hour. Here is the method: Experimental Example 1: Fluorescence-based enzyme activity assay
In order to measure the inhibitory effect of the compounds on the activity of histone deacetylase 6 (HDAC6), an enzyme activity assay was performed to evaluate the enzyme activity by reacting the human HDAC6 enzyme with a substrate to which a fluorescent peptide of p53 residues 379-382 was attached. The test compounds were dissolved in 100% DMSO at a concentration of 10 mM to prepare a stock solution. A starting concentration of 30 µM was prepared from the stock solution, followed by 1/3 serial dilutions to prepare the test buffer solution. Trichostatin A (TSA)-which is the reference compound used to confirm the validity of the experiment-was serially diluted by 1/3 with the test buffer solution, starting from the highest concentration of 1 µM. To react the test compounds and TSA prepared in the test buffer with the HDAC6 enzyme, they were dispensed into a 96-well black plate and spin-down of the plate was performed. Then, the reaction was carried out at room temperature for 10 minutes. After 10 minutes, the substrate was dispensed, and the plate was sealed. The reaction was carried out at 30°C for 1 hour under light-blocking conditions. Fluorescence values were measured using a plate reader (wavelength: excitation/emission = 360/460 nm). The fluorescence measurements were normalized to the HDAC6 enzyme-treated group as 100% and the untreated group as 0%, respectively. […]

T1 sequence (P41594 21-1212): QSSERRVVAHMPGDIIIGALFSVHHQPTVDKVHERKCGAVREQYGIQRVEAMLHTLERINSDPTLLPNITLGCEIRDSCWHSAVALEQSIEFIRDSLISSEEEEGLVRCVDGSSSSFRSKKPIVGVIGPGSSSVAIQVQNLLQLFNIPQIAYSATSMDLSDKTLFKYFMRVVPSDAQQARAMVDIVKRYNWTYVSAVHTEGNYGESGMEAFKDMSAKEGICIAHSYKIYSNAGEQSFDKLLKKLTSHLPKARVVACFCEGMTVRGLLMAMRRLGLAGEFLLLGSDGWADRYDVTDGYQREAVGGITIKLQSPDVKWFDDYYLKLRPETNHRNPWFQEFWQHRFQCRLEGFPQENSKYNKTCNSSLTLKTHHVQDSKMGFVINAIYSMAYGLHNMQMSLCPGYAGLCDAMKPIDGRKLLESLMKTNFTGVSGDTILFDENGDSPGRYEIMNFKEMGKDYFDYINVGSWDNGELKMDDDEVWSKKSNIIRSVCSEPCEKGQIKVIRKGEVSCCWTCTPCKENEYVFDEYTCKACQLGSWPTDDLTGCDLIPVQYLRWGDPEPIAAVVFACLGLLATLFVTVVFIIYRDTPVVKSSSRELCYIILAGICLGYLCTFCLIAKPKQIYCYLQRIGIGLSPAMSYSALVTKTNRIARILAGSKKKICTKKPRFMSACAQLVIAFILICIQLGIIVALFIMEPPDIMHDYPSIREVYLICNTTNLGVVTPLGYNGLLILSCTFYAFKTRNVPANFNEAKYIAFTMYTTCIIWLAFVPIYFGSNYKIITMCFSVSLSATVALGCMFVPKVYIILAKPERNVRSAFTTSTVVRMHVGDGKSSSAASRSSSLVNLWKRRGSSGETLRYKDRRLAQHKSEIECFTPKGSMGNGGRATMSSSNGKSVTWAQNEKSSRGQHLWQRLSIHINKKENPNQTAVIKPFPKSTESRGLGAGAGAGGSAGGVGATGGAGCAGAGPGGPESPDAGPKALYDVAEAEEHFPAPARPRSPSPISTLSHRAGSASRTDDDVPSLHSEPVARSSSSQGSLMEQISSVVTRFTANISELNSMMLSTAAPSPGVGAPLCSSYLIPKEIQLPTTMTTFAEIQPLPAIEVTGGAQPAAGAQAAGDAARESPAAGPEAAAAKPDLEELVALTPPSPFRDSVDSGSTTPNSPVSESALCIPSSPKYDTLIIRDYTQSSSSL

`O=c1cc(-c2noc(C(F)(F)F)n2)ccn1CC#Cc1cccc(Cl)c1` [Example 7, 1-(3-(3-chlorophenyl)prop-2-yn-1-yl)-4-(5-(trifluoromethyl)-1,2,4-oxadiazol-3-yl)pyridine-2(1H)-one]: the IC50 (in general, the midpoint of a concentration-inhibition curve) against Human mGluR5 is 1000 to 2000 nM; on human HDAC6 enzyme, 500 to 1000 nM.

As for `O=c1cc(-c2nnc(C(F)F)o2)ccn1CC#Cc1cccc(Cl)c1` [Example 15, 1-(3-(3-chlorophenyl)prop-2-yn-1-yl)-4-(5-(difluoromethyl)-1,3,4-oxadiazol-2-yl)pyridin-2(1H)-one], the IC50 was 500 to 1000 nM against Human mGluR5 and under 100 nM on human HDAC6 enzyme.

Take `Cc1ccc(C#CCn2ccc(-c3nnc(C(F)F)o3)cc2=O)cc1` [Example 17, 4-(5-(difluoromethyl)-1,3,4-oxadiazol-2-yl)-1-(3-(p-tolyl)prop-2-yn-1-yl)pyridin-2(1H)-one]: the IC50 was 1000 to 2000 nM on Human mGluR5 and 100 to 500 nM against human HDAC6 enzyme.

As for `Cc1cccc(C#CCn2ccc(-c3nnc(C(F)F)o3)cc2=O)c1` [Example 18, 4-(5-(difluoromethyl)-1,3,4-oxadiazol-2-yl)-1-(3-(m-tolyl)prop-2-yn-1-yl)pyridin-2(1H)-one], the IC50 at Human mGluR5 was 1000 to 2000 nM; against human HDAC6 enzyme, under 100 nM.

Take `O=c1cc(-c2nnc(C(F)F)o2)ccn1CC#Cc1cccc(C(F)(F)F)c1` [Example 19, 4-(5-(difluoromethyl)-1,3,4-oxadiazol-2-yl)-1-(3-(3-(trifluoromethyl)phenyl)prop-2-yn-1-yl)pyridin-2(1H)-one]: the values for the IC50 against Human mGluR5 and against human HDAC6 enzyme were 1000 to 2000 nM and 100 to 500 nM, respectively.

Take `O=c1cc(-c2nnc(C(F)F)o2)ccn1CC#Cc1cccc(OC(F)(F)F)c1` [Example 20, 4-(5-(difluoromethyl)-1,3,4-oxadiazol-2-yl)-1-(3-(3-(trifluoromethoxy)phenyl)prop-2-yn-1-yl)pyridin-2(1H)-one]: the concentration for half-maximal inhibition (IC50) against Human mGluR5 was in the range of 1000 to 2000 nM; against human HDAC6 enzyme, 100 to 500 nM.

Turning to `O=c1cc(-c2nnc(C(F)F)o2)ccn1CC#Cc1ccnc(Cl)c1` [Example 23, 1-(3-(2-chloropyridin-4-yl)prop-2-yn-1-yl)-4-(5-(difluoromethyl)-1,3,4-oxadiazol-2-yl)pyridin-2(1H)-one], the results for the IC50 at Human mGluR5 and at human HDAC6 enzyme were 1000 to 2000 nM and under 100 nM, respectively.

With `Cc1cccc(C#CCn2ccc(-c3nnc(C(F)F)o3)cc2=O)n1` [Example 24, 4-(5-(difluoromethyl)-1,3,4-oxadiazol-2-yl)-1-(3-(6-methylpyridin-2-yl)prop-2-yn-1-yl)pyridin-2(1H)-one], the IC50 against Human mGluR5 is 500 to 1000 nM; on human HDAC6 enzyme, under 100 nM.

Consider `O=c1cc(-c2nnc(C(F)F)o2)ccn1CC#Cc1cccc(Br)c1` [Example 25, 1-(3-(3-bromophenyl)prop-2-yn-1-yl)-4-(5-(difluoromethyl)-1,3,4-oxadiazol-2-yl)pyridin-2(1H)-one], for which the IC50 at Human mGluR5 fell in the range of 500 to 1000 nM; on human HDAC6 enzyme, 100 to 500 nM.

`O=c1cc(-c2nnc(C(F)F)o2)ccn1CC#Cc1cccc(C(F)F)c1` [Example 26, 4-(5-(difluoromethyl)-1,3,4-oxadiazol-2-yl)-1-(3-(3-(difluoromethyl)phenyl)prop-2-yn-1-yl)pyridin-2(1H)-one] showed an IC50 against Human mGluR5 of 500 to 1000 nM.

For the compound `O=c1cc(-c2nnc(C(F)F)o2)ccn1CC#Cc1cccc(OC(F)F)c1` [Example 27, 1-(3-(3-(difluoromethoxy)phenyl)prop-2-yn-1-yl)-4-(5-(difluoromethyl)-1,3,4-oxadiazol-2-yl)pyridin-2(1H)-one], the IC50 on Human mGluR5 is 1000 to 2000 nM; against human HDAC6 enzyme, under 100 nM.

Regarding `O=c1cc(-c2nnc(C(F)(F)F)o2)ccn1CC#Cc1cccc(Cl)c1` [Example 28, 1-(3-(3-chlorophenyl)prop-2-yn-1-yl)-4-(5-(trifluoromethyl)-1,3,4-oxadiazol-2-yl)pyridin-2(1H)-one], the values for the half-inhibitory concentration (IC50) at Human mGluR5 and against human HDAC6 enzyme were 1000 to 2000 nM and 500 to 1000 nM, respectively.

On to `O=c1cc(-c2noc(C(F)F)n2)ccn1CC#Cc1cccc(Cl)c1` [Example 30, 1-(3-(3-chlorophenyl)prop-2-yn-1-yl)-4-(5-(difluoromethyl)-1,2,4-oxadiazol-3-yl)pyridin-2(1H)-one], for which the 50% inhibitory concentration (IC50) at Human mGluR5 and against human HDAC6 enzyme was 500 to 1000 nM throughout.

For the compound `N#Cc1cccc(C#CCn2ccc(-c3nnc(C(F)F)o3)cc2=O)c1` [Example 31, 3-(3-(4-(5-(difluoromethyl)-1,3,4-oxadiazol-2-yl)-2-oxopyridin-1(2H)-yl)prop-1-yn-1-yl)benzonitrile], the IC50 was 500 to 1000 nM at Human mGluR5 and under 100 nM against human HDAC6 enzyme.

For `O=c1cc(-c2nnc(C(F)F)o2)ccn1CC#Cc1cc(Cl)ccc1F` [Example 36, 1-(3-(5-chloro-2-fluorophenyl)prop-2-yn-1-yl)-4-(5-(difluoromethyl)-1,3,4-oxadiazol-2-yl)pyridin-2(1H)-one], the half-inhibitory concentration (IC50) at Human mGluR5 is 1000 to 2000 nM; against human HDAC6 enzyme it was 100 to 500 nM.

`CCC(C#Cc1cccc(Cl)c1)Oc1cc(-c2nnc(C(F)F)o2)ccn1` (stereo not drawn) [Example 44] gave a concentration for half-maximal inhibition (IC50) on Human mGluR5 of 1000 to 2000 nM.

Consider `Cc1cc(-c2nnc(C(F)F)o2)cc(=O)n1CC#Cc1cccc(Cl)c1` [Example 45, 1-(3-(3-chlorophenyl)prop-2-yn-1-yl)-4-(5-(difluoromethyl)-1,3,4-oxadiazol-2-yl)-6-methylpyridin-2(1H)-one], for which the half-maximal inhibitory concentration (IC50) is 500 to 1000 nM against Human mGluR5 and 100 to 500 nM at human HDAC6 enzyme.

`O=c1cc(-c2nnc(C(F)F)o2)c(Br)cn1CC#Cc1cccc(Cl)c1` [Example 46, 5-bromo-1-(3-(3-chlorophenyl)prop-2-yn-1-yl)-4-(5-(difluoromethyl)-1,3,4-oxadiazol-2-yl)pyridin-2(1H)-one] returned a half-inhibitory concentration (IC50) against Human mGluR5 of 500 to 1000 nM.
